Laboratory results taken from patent US12358921B2, “Antiviral heterocyclic compounds” (priority 2022, dated 2025).
pEC50: −log10 of the molar value.

Assays:
Assay type in all cases: cell-based
[1] = system: HUMAN RSV-A (“LONG” STRAIN); experiment: RSV-A assay (CPE, ATPlite) in Hep-2 cells; conditions: human respiratory syncytial virus, 120 h, MOI 0.1, 5-day incubation
Procedure, shortened: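 Hep-2 cells (8,000/well) given 2-fold serial compound dilutions in duplicate, then infected with RSV-A Long strain at MOI 0.1. After 5 days, virus-induced cytopathic effect quantified as cellular ATP by ATPlite luminescence, against virus-only and uninfected controls; EC50 reported in ranges.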

hMPV A2 TN/94-49 [2] = experiment: HMPV antiviral assay Method 2 (LLC-MK2 cells with CP-100-356, ATP-Lite); conditions: hMPV A2 TN/94-49, LLC-MK2 cells, 4 μM CP-100-356, Method 2
Procedure, shortened: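 LLC-MK2 cells infected in suspension with hMPV A2 TN/94-49 at MOI 0.16, in serum-free OptiMEM with final 2 μg/mL TPCK-trypsin and 2 μM CP-100-356 (P-gp inhibitor). Compounds tested in duplicate, top 200 nM, 2.5-fold, 10 points; 7 days at 37 °C. ATP-Lite cell health normalised to controls; EC50 by four-parameter fit.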

hMPV A2 TN/94-49 [3] = experiment: HMPV antiviral assay Method 1 (LLC-MK2 cells, ATP-Lite); conditions: hMPV A2 TN/94-49, LLC-MK2 cells
Procedure, shortened: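 LLC-MK2 cells infected in suspension with hMPV A2 TN/94-49 at MOI 0.005, 5,000 cells/well, in serum-free OptiMEM with 2 μg/mL TPCK-trypsin (final) and CaCl2; compounds in duplicate, 10 points, 2 μM top, 2.5-fold dilutions. After 7 days at 37 °C, cell health by ATP-Lite luminescence; EC50 by four-parameter fit.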

Structure (SMILES) | pEC50 [1] | pEC50 (hMPV A2 TN/94-49 [2]) | pEC50 (hMPV A2 TN/94-49 [3])
COc1cc(C(=O)NC[C@](O)(c2cc3c(c(-c4ccc(F)c(Cl)c4Cl)n2)OC[C@]3(C)C(N)=O)C(F)(F)F)cc2cn(C(F)F)nc12 [Example 66] | > 6.70 | > 6.70 | > 6.30
COc1cc(C(=O)NC[C@@](O)(c2ccc(F)cc2)c2cc3c(c(-c4cc(Cl)c(F)cc4F)n2)OC[C@]3(C)C(N)=O)cc2cn(C3(F)CC3)nc12 [Example 14] | > 6.70 | > 6.70 | > 6.30
COc1cc(C(=O)NC[C@@](O)(c2ccccc2)c2cc3c(c(-c4cc(Cl)c(F)cc4F)n2)OC[C@]3(C)C(N)=O)cc2cc(C)nnc12 [Example 89] | > 6.70 | > 6.70 | > 6.30
COc1cc(C(=O)NC[C@@](O)(c2ccccc2)c2cc3c(c(-c4cc(Cl)c(F)cc4F)n2)OC[C@]3(C)C(N)=O)cc2oc(C3CC3)nc12 [Example 85] |  | > 6.70 | > 6.30
COc1cc(C(=O)NC[C@@](O)(c2ccc(F)cc2)c2cc3c(c(-c4cc(Cl)c(F)cc4F)n2)OC[C@]3(C)C(N)=O)cc2cc(Cl)c(C)nc12 [Example 17] | > 6.70 |  | > 6.30
COc1cc(C(=O)NC[C@@](O)(c2ccc(F)cc2)c2cc3c(c(-c4ccc(F)c(Cl)c4Cl)n2)OC[C@]3(C)C(N)=O)cc2cc(C3CC3)nn12 [Example 45] | > 6.70 |  | > 6.30
[2H]C([2H])([2H])c1cc2cc(C(=O)NC[C@](O)(c3cc4c(c(-c5ccc(F)c(Cl)c5)n3)OC[C@]4(C)C(N)=O)C(F)(F)F)cc(OC)c2nc1C [Example 20] | > 6.70 |  | < 6.30
COc1cc(C(=O)NC[C@@](O)(c2cc3c(c(-c4cc(F)c(F)c(F)c4Cl)n2)OC[C@]3(C)C(N)=O)C(F)(F)F)cc2cn(C3CC3)nc12 [Example 58] | > 6.70 |  | < 6.30
COc1cc(C(=O)NC[C@](O)(c2cc3c(c(-c4cc(Cl)c(F)cc4F)n2)OC[C@]3(C)C(N)=O)c2ccccc2F)cc2cc(C3CC3)nn12 [Example 137] | > 6.70 |  | > 6.30
COc1cc(C(=O)NC[C@@](O)(c2cccc(F)c2)c2cc3c(c(-c4cc(Cl)c(F)cc4F)n2)OC[C@]3(C)C(N)=O)cc2cn(C(F)F)nc12 [Example 134] | > 6.70 |  | > 6.30
COc1cc(C(=O)NC[C@](O)(c2cc3c(c(-c4cc(Cl)cc(C)c4F)n2)OC[C@]3(C)C(N)=O)C2CC2)cc2cn(C3CC3)nc12 [Example 47] | > 6.70 |  | < 6.30
C[C@]1(C(N)=O)COc2c1cc([C@@](O)(CNC(=O)c1cc(OC3CC3)c3nn(C4CC4)cc3c1)C1CC1)nc2-c1cc(Cl)c(F)cc1F [Example 2] | > 6.70 |  | > 6.30
COc1cc(F)ccc1-c1nc([C@@](O)(CNC(=O)c2cc(OC)c3nn(C4CC4)cc3c2)C2CC2)cc2c1OC[C@]2(C)C(N)=O [Example 67] | > 6.70 |  | < 6.30
COc1cc(C(=O)NC[C@@](O)(c2ccccc2)c2cc3c(c(-c4cc(Cl)c(F)cc4F)n2)OC[C@]3(C)C(N)=O)cc2cc(C)cnc12 [Example 80] | > 6.70 |  | > 6.30
[2H]C([2H])([2H])c1cc2cc(C(=O)NC[C@](O)(c3cc4c(c(-c5cc(F)c(F)cc5F)n3)OC[C@]4(C)C(N)=O)C3CC3)cc(OC)c2nc1C([2H])([2H])[2H] [Example 28] | > 6.70 |  | > 6.30
Cc1nc2ccc(C(=O)NC[C@@](O)(c3ccccc3)c3cc4c(c(-c5cc(Cl)c(F)cc5F)n3)OC[C@]4(C)C(N)=O)cc2o1 [Example 86] | > 6.70 |  | > 6.30
COc1cc(C(=O)NC[C@](O)(c2cc3c(c(-c4cc(F)c(F)c(F)c4Cl)n2)OC[C@]3(C)C(N)=O)C(F)(F)F)cc2cn(C3CC3)nc12 [Example 59] | > 6.70 |  | > 6.30
COc1cc(C(=O)NC[C@](O)(c2cc3c(c(-c4ccc(F)c(CO)c4F)n2)OC[C@]3(C)C(N)=O)C2CC2)cc2cn(C3CC3)nc12 [Example 72] | > 6.70 |  | < 6.30
COc1cc(C(=O)NC[C@](O)(c2cc3c(c(-c4cc(Cl)c(F)cc4F)n2)OC[C@]3(C)C(N)=O)c2ccccc2F)cc2cn(C3CC3)nc12 [Example 136] | > 6.70 |  | > 6.30

The next lines start with the values.

pEC50 [1] | pEC50 (hMPV A2 TN/94-49 [2]) | pEC50 (hMPV A2 TN/94-49 [3]) | Structure (SMILES)
> 6.70 | > 6.70 | > 6.30 | COc1ccc([C@](O)(CNC(=O)c2cc(OC)c3nn(C4CC4)cc3c2)c2cc3c(c(-c4cc(Cl)c(F)cc4F)n2)OC[C@]3(C)C(N)=O)cc1 [Example 165]
> 6.70 | > 6.70 | > 6.30 | COc1cc(C(=O)NC[C@@](O)(c2ccccn2)c2cc3c(c(-c4cc(Cl)c(F)cc4F)n2)OC[C@]3(C)C(N)=O)cc2cn(C3CC3)nc12 [Example 463]
> 6.70 | > 6.70 | > 6.30 | COc1cc(C(=O)NC[C@@](O)(c2ccccc2)c2cc3c(c(-c4ccc(F)c(Cl)c4Cl)n2)OC[C@]3(C)C(N)=O)cc2cc(C3CC3)nnc12 [Example 290]
> 6.70 | > 6.70 | > 6.30 | COc1cc(C(=O)NC[C@@](O)(c2ccsc2)c2cc3c(c(-c4cc(F)c(F)cc4F)n2)OC[C@]3(C)C(N)=O)cc2cn(C3(F)CC3)nc12 [Example 179]
> 6.70 | > 6.70 | > 6.30 | COc1cc(C(=O)NC[C@@](O)(c2ccccc2)c2cc3c(c(-c4cc(Cl)c(F)cc4F)n2)OC[C@]3(C)C(N)=O)cc2cn(C3(F)CC3)nc12 [Example 158]
> 6.70 | > 6.70 | > 6.30 | COc1cc(C(=O)NC[C@@](O)(c2ccccc2)c2cc3c(c(-c4ccc(F)c(Cl)c4Cl)n2)OC[C@]3(C)C(N)=O)cc2oc(C3CC3)nc12 [Example 278]
> 6.70 | > 6.70 | > 6.30 | COc1cc(C(=O)NC[C@@](O)(c2ccccc2)c2cc3c(c(-c4ccc(F)c(Cl)c4Cl)n2)OC[C@]3(C)C(N)=O)cc2cn(C(F)F)nc12 [Example 258]
> 6.70 |  | > 6.30 | COc1cc(C(=O)NCC(O)(c2csc(Cl)c2)c2cc3c(c(-c4cc(Cl)c(F)cc4F)n2)OC[C@]3(C)C(N)=O)cc2cn(C3CC3)nc12 (some centres unmarked) [Example 471]
> 6.70 |  | > 6.30 | Cc1nc2ccc(C(=O)NC[C@@](O)(c3cccc(F)c3)c3cc4c(c(-c5ccc(F)c(Cl)c5Cl)n3)OC[C@]4(C)C(N)=O)cc2o1 [Example 283]
> 6.70 |  | > 6.30 | COc1cc(C(=O)NC[C@](O)(c2cc3c(c(-c4cc(Cl)c(F)cc4F)n2)OC[C@]3(C)C(N)=O)c2ccccc2F)cc2cn(C(F)F)nc12 [Example 138]
< 6.70 |  | < 6.30 | COc1cc(C(=O)NC[C@@](O)(c2cc3c(c(-c4cc(Cl)c(F)cc4F)n2)OC[C@]3(C)C(N)=O)c2cnn[nH]2)cc2cn(C3CC3)nc12 [Example 181]
> 6.70 |  | > 6.30 | COc1cc(C(=O)NC[C@@](O)(c2ccccc2)c2cc3c(c(-c4ccc5c(c4Cl)OC(F)(F)O5)n2)OC[C@]3(C)C(N)=O)cc2cn(C3(F)CC3)nc12 [Example 255]
> 6.70 |  | > 6.30 | COc1cc(C(=O)NC[C@@](O)(c2cccc(F)c2)c2cc3c(c(-c4ccc5c(c4Cl)OC(F)(F)O5)n2)OC[C@]3(C)C(N)=O)cc2cn(C3CC3)nc12 [Example 274]
> 6.70 |  | > 6.30 | COc1cc(C(=O)NC[C@@](O)(c2ccsc2)c2cc3c(c(-c4cc(F)c(F)cc4F)n2)OC[C@]3(C)C(N)=O)cc2cn(C(F)F)nc12 [Example 178]
> 6.70 |  | > 6.30 | C[C@]1(C(N)=O)COc2c1cc([C@@](O)(CNC(=O)c1ccc3nc(N)sc3c1)c1ccccc1)nc2-c1ccc2c(c1Cl)OC(F)(F)O2 [Example 256]
> 6.70 |  | > 6.30 | COc1cc(C(=O)NC[C@@](O)(c2ccccc2)c2cc3c(c(-c4ccc5c(c4Cl)OC(F)(F)O5)n2)OC[C@]3(C)C(N)=O)cc2cn(C3CC3)nc12 [Example 251]
> 6.70 |  | > 6.30 | CNC(=O)[C@@]1(C)COc2c1cc([C@@](O)(CNC(=O)c1cc(OC)c3nn(C4CC4)cc3c1)c1ccccc1)nc2-c1cc(Cl)c(F)cc1F [Example 141]
> 6.70 |  | > 6.30 | COc1cc(C(=O)NC[C@@](O)(c2ccccc2)c2cc3c(c(-c4cc(Cl)c(F)cc4F)n2)OC[C@]3(C)C(N)=O)cc2cc(Cl)c(C)nc12 [Example 159]
> 6.70 |  | > 6.30 | [2H]c1nc2c(OC(F)F)cc(C(=O)NC[C@@](O)(c3ccccc3)c3cc4c(c(-c5cc(Cl)c(F)cc5F)n3)OC[C@]4(C)C(N)=O)cc2cc1C([2H])([2H])[2H] [Example 217]
> 6.70 |  | < 6.30 | COc1cc(C(=O)NCC(O)(c2cc3c(c(-c4cc(Cl)c(F)cc4F)n2)OC[C@]3(C)C(N)=O)c2cc3ccccc3s2)cc2cn(C3CC3)nc12 (some centres unmarked) [Example 469]
> 6.70 |  | < 6.30 | COc1cc(C(=O)NC[C@](O)(c2cc3c(c(-c4cc(Cl)c(F)cc4F)n2)OC[C@]3(C)C(N)=O)c2cnn[nH]2)cc2cn(C3CC3)nc12 [Example 180]
> 6.70 |  | > 6.30 | COc1cc(C(=O)NC[C@@](O)(c2ccccc2)c2cc3c(c(-c4cc(C(F)(F)F)ccc4F)n2)OC[C@]3(C)C(N)=O)cc2cc(C3CC3)nn12 [Example 149]
